Like-named read-outs stand apart in the source and are kept apart here. Values belong to the compound of their own block, whether it stands above or below them.
Columns and labels:
HIV-1 strain HTLVIIIB = assay: Inhibition of HIV-1 HTLVIIIB replication in PBMC (p24 antigen EIA); assay type: cell-based; settings: HIV-1 strain HTLVIIIB in human PBMC, p24 EIA on 7th day after infection; for IC50: read-out: IC50 [HTL VIIIB]
Procedure: The cells were then infected with virus at a multiplicity of infection (MOI) of 0.1 during a one-hour adsorption period at 37° C. in a humidified 5% CO2 atmosphere. Subsequently, cells were cultured in 96-well microplates (100 μL/well; 2×10^6 cells/mL, triplicate wells) in the presence of various inhibitor concentrations. […] Ag. […] The applied p24 EIA was the unmodified kinetic assay commercially available from Coulter Corporation/Immunotech, Inc. (Westbrook, Me.).
To test the therapeutic activity of the compounds of the invention, p24 assays were utilized as previously described. […] 1 during a one-hour adsorption period at 37° C. in a humidified 5% CO2 atmosphere. Subsequently, cells were cultured in 96-well microliter plates ([…]; 2×10^6 cells/mL, triplicate wells) in the presence of various inhibitor concentrations. Aliquots of culture supernatants were removed from the wells on the 7th day after infection for p24 antigen p24 enzyme immunoassays (EIA).
The applied p24 EIA was the unmodified kinetic assay commercially available from Coulter Corporation/Immunotech, Inc. (Westbrooke, Me.), which utilizes a murine monoclonal antibody to HIV core protein coated onto microwell strips to which the antigen present in the test culture supernatant samples binds. Percent inhibition of viral replication was calculated by comparing the p24 values from the test substance treated infected cells with p24 values from untreated infected cells (i.e., virus controls).

[1] = test system: human peripheral blood mononuclear cells (PBMC); assay: Microculture Tetrazolium Assay (MTA, XTT) for cell viability of non-infected PBMC; assay type: cell-based; settings: 7 days, read-out: CC (cytotoxic concentration, CC50)
Procedure: In parallel, the effects of various treatments on cell viability were also examined, as described in Enrice et.al., supra. In brief, non-infected PBNWC were treated with each compound for 7 days under identical experimental conditions. A Microculture Tetrazolium Assay (MTA), using 2,3-bis(2-methoxy-4nitro-5-sulfophenyl)-5-[(phenylarnino)-carbonyl]-2H-tetrazolium hydroxide (XTT), was performed to quantitate cellular proliferation.

[2] = test system: HIV-1 strain RT-MDR (V106A); assay: Inhibition of replication of NNI-resistant HIV-1 strain RT-MDR in H9 cells; assay type: cell-based
Procedure: (§1) The ability of Compounds 4 (HI-516), 11 (HI-566), and 12 (HI-565) to inhibit the replication of NNI-resistant HIV-1 strains, A17 (Y181C) and RT-MDR (V106A), was analyzed. The anti-HIV activity of the compounds was measured by determining their ability to inhibit the replication of HIV-1 strains A17 in PBMC from healthy volunteer donors and RT-MDR in H9 cells.
(§2) Compounds 4, 11, and 12 were compared with nevirapine or delavirdine, two known non-nucleoside reverse transcriptase inhibitors of HIV-1 RT.

HIV-1 strain A17 (Y181C) = assay: Inhibition of replication of NNI-resistant HIV-1 strain A17 in PBMC; assay type: cell-based; settings: for IC50: read-out: IC50 A17 (Y181C)
Procedure: as §1, §2

[3] = RT-MDR in H9 cells, read-out: IC50 RT-MDR (V106A)
[4] = A17 in PBMC from healthy volunteer donors
[5] = Human immunodeficiency virus 1, H9, read-out: IC50 RT-MDR (V106A)
[6] = Human immunodeficiency virus 1, PBMC

SMILES: S=C(NCCN1CCCCC1)Nc1ccccn1 [Compound 1]
IC50 (HIV-1 strain HTLVIIIB): > 100000 nM

SMILES: S=C(NCCN1CCCCC1)Nc1ccc(Br)cn1 [Compound 2, N-[2-(1-piperidinylethyl)]-N′-[2-(5-bromopyridyl)]-thiourea]
IC50 [HTL VIIIB] (HIV-1 strain HTLVIIIB): nanomolar concentrations
IC50 (HIV-1 strain HTLVIIIB): 2 nM

SMILES: CC1CCCN(CCNC(=S)Nc2ccc(Br)cn2)C1 (stereo not drawn) [Compound 3, N-[2-(3-methylpiperidinylethyl)]-N′-[2-(5-bromopyridyl)]-thiourea]
IC50 (HIV-1 strain HTLVIIIB): 80 nM

SMILES: CC1CCCCN1CCNC(=S)Nc1ccc(Br)cn1 (stereo not drawn) [Compound 4, N-[2-(2-methylpiperidinylethyl)]-N′-[2-(5-bromopyridyl)]-thiourea]
CC50 [1]: 50000 nM
IC50 RT-MDR (V106A) ([2]; RT-MDR in H9 cells): less active than nevirapine or delavirdine
IC50 [2, 3]: 1900 nM
IC50 A17 (Y181C) (HIV-1 strain A17 (Y181C); [4]): not active
IC50 (HIV-1 strain A17 (Y181C); [4]): > 100000 nM
IC50 (HIV-1 strain HTLVIIIB): < 1 nM

SMILES: S=C(NCCN1CCCCC1)Nc1ccc(Cl)cn1 [Compound 5, N-[2-(1-piperidinylethyl)]-N′-[2-(5-chloropyridyl)]-thiourea]
IC50 [HTL VIIIB] (HIV-1 strain HTLVIIIB): nanomolar concentrations
IC50 (HIV-1 strain HTLVIIIB): 1 nM

SMILES: CC1CCCN(CCNC(=S)Nc2ccc(Cl)cn2)C1 (stereo not drawn) [Compound 6, N-[2-(3-methylpiperidinylethyl)]-N′-[2-(5-chloropyridyl)]-thiourea]
IC50 (HIV-1 strain HTLVIIIB): 20 nM

melting point: 117 to 118 °C
IC50 (HIV-1 strain HTLVIIIB; Human immunodeficiency virus 1): 1 nM
SMILES: CC1CCCCN1CCCNC(=S)Nc1ccc(Cl)cn1 (stereo not drawn) [Compound 7, N-[3-(2-methylpiperidinylpropyl)]-N′-[2-(5-chloropyridyl)]-thiourea]

SMILES: S=C(NCCOc1ccccc1)Nc1ccccn1 [Compound 8, N-[2-(Phenoxy)ethyl]-N′-[2-(pyridyl)]thiourea]
CC50 [1]: 55000 nM
IC50 (HIV-1 strain HTLVIIIB): 5 nM

SMILES: S=C(NCCOc1ccccc1)Nc1ccc(Cl)cn1 [Compound 9, N-[2-(Phenoxy)ethyl]-N′-[2-(5-chloropyridyl)]thiourea]
CC50 [1]: > 100000 nM
IC50 (HIV-1 strain HTLVIIIB): 4 nM

SMILES: S=C(NCCOc1ccccc1)Nc1ccc(Br)cn1 [Compound 10, N-[2-(Phenoxy)ethyl]-N′-[2-(5-bromopyridyl)] thiourea]
CC50 [1]: 92000 nM
IC50 (HIV-1 strain HTLVIIIB): 5 nM

SMILES: FC(CNC(=S)Nc1ccc(Cl)cn1)c1ccccc1 (stereo not drawn) [Compound 11, β-Fluoro[2-phenethyl]-N′-[2-(5-chloropyridyl)] thiourea]
CC50 [1]: 30000 nM
IC50 RT-MDR (V106A) ([2]; RT-MDR in H9 cells): submicromolar
IC50 [2, 3]: 100 nM
IC50 (HIV-1 strain A17 (Y181C); [4]): 100 nM
IC50 [HTL VIIIB] (HIV-1 strain HTLVIIIB): subnanomolar
IC50 (HIV-1 strain HTLVIIIB): < 1 nM

SMILES: FC(CNC(=S)Nc1ccc(Br)cn1)c1ccccc1 (stereo not drawn) [Compound 12, β-Fluoro[2-phenethyl]-N′-[2-(5-bromopyridyl)]thiourea]
CC50 [1]: 50000 nM
IC50 RT-MDR (V106A) ([2]; RT-MDR in H9 cells): submicromolar
IC50 [2, 3]: 200 nM
IC50 (HIV-1 strain A17 (Y181C); [4]): 100 nM
IC50 [HTL VIIIB] (HIV-1 strain HTLVIIIB): subnanomolar
IC50 (HIV-1 strain HTLVIIIB): < 1 nM

SMILES: CC(C)Nc1cccnc1N1CCN(C(=O)c2cc3cc(NS(C)(=O)=O)ccc3[nH]2)CC1 [Delavirdine, reference compound]
IC50 [2, 5]: 400 nM
IC50 (HIV-1 strain A17 (Y181C); [6]): 50000 nM

SMILES: Cc1ccnc2c1NC(=O)c1cccnc1N2C1CC1 [Nevirapine, reference compound]
IC50 [2, 5]: 1400 nM
IC50 (HIV-1 strain A17 (Y181C); [6]): 21400 nM

SMILES: S=C(NCCc1ccccn1)Nc1ccc(Br)cn1 [Trovirdine, reference compound]
CC50 [1]: 100000 nM
IC50 (HIV-1 strain HTLVIIIB): 7 nM

— US20020151568A1, “Piperidinylethyl-, phenoxyethyl-, and beta-fluorophenethyl-substituted thiourea compounds with potent anti-HIV activity” (priority 2000, published 2002)
